Results: publication PMC4764977, “AZD8797 is an allosteric non-competitive modulator of the human CX3CR1 receptor” (Biochemical Journal, 2016)

Columns and labels:
CX3CR1 [1] = target: T1, CX3CR1 (Homo sapiens, UniProt P49238); test: Equilibrium saturation binding, CHO-hCX3CR1 membranes; set-up: host or cells: CHO-K1; conditions: GTPγS added (100 μM)
T1 sequence (P49238 1-355): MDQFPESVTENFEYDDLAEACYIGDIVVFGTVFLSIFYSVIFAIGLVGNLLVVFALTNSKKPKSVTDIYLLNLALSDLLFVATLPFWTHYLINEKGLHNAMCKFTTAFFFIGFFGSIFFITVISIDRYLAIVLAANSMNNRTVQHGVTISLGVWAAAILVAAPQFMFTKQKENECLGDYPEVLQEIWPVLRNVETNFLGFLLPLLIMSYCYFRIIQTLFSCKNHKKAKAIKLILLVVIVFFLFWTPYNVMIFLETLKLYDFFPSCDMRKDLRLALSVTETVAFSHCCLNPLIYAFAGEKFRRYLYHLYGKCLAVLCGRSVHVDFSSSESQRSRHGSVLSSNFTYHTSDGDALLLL
Method: Cells were washed in PBS and lysed with an Ultra-Turrax Homogenizer in 50 mM Tris/HCl (pH 7.4) and 1 mM EDTA with Complete™ protease inhibitor (Roche). […] Protein concentration was determined using the BCA method (Thermo Fisher Scientific). […] The filter plate was washed in ice-cold 25 mM HEPES (pH 7.4), 5 mM MgCl2, 1 mM CaCl2 and 500 mM NaCl and dried at 50°C for 1 h. Scintillation cocktail, Optiphase Supermix (PerkinElmer) was added to each well and the radioactivity was measured using a MicroBeta Trilux reader (PerkinElmer). […] The DMSO concentration was held constant at 1%. where Kd is the radioligand dissociation constant. Saturation binding isotherms were analysed by non-linear regression and globally fitted to a hyperbolic one-site binding model taking into account both NSB and total binding to calculate the total receptor number (Bmax) and radioligand dissociation constant (Kd): […] NSB=NS·X+Background, where NS is the concentration-dependent NSB. To visualize the manner of binding of CX3CL1 and AZD8797, a diagnostic affinity ratio plot designed to compare strictly competitive behaviour with allosteric interactions was used. […] For single site competitive interactions, the resulting linear plot has the slope of 1.0. For allosteric but competitive interactions, the slope will start at 1.0 but progressively deviate from unity, eventually reaching a limit governed by the allosteric ternary complex model co-operativity factor α [21, 22].

CX3CR1 [2] = target: T1, CX3CR1; test: 125I-CX3CL1 kinetic radioligand binding, CHO-hCX3CR1 membranes; set-up: host or cells: CHO-K1
Method: Incubation times ranged from 2.5 min to 4 h. For the association experiments, the radioligand data were fitted to the following monophasic exponential association equation and the association rate (kon) was calculated using the added amounts of radioligand (L) and dissociation rate (koff) as constants. koff was measured in separate dissociation experiments. The dissociation data were fitted to the monophasic exponential decay equation: where Y0 is the binding (cpm) at time zero, X is the time and NS is the (non-specific) binding at infinite times. […] Multiple compound dissociation data were fitted to the biphasic exponential decay equation: […]

CX3CR1 [3] = target: T2, CX3CR1 (Homo sapiens, UniProt P49238); test: 125I-CX3CL1 saturation radioligand binding (CHO-hCX3CR1 membranes)
T2 chain: T1 sequence (P49238 1-355)

CX3CR1 [4] = target: T2, CX3CR1; test: 125I-CX3CL1 competition radioligand binding (CHO-hCX3CR1 membranes)
[5] = co-adding 100 μM GTPγS + 100 nM CX3CL1, two-phase model, n=2

Nc1nc2c(ncn2[C@@H]2O[C@H](COP(=O)(O)OP(=O)(O)OP(O)(O)=S)[C@@H](O)[C@H]2O)c(=O)[nH]1 [GTPγS, guanosine 5′-[γ-thio]triphosphate, reference compound]
Effect on [3H]AZD8797 and 125I-CX3CL1 equilibrium saturation binding (CX3CR1 [1]): no effect | k1off of 125I-CX3CL1 dissociation (CX3CR1 [2]; [5]): 0.55 min⁻¹ | k2off of 125I-CX3CL1 dissociation (CX3CR1 [2]; [5]): 0.0084 min⁻¹ | Effect on 125I-CX3CL1 association rate (kon) (CX3CR1 [2]; results not shown): no effect | Effect on maximal binding of 125I-CX3CL1 in association experiments (CX3CR1 [2]; results not shown): no effect

B1: CX3CL1 (fractalkine) chemokine domain (protein)
chain: LAGQHHGVTKCNITCSKMTSKIPVALLIHYQQNQASCGKRAIILETRQHRLFCADPKEQWVKDAMQHLDRQAAALTRNGGTF
modifications: 125I-labelled CX3CL1
Kd (CX3CR1 [3]): 0.19 nM

B2: CX3CL1 (fractalkine) chemokine domain (protein)
chain: B1 chain
Ki (CX3CR1 [4]): 0.29 nM
